Data as given in patent EP2098226A1, “AKAP-PKA interaction inhibitors for use in the treatment of heart diseases” (Forschungsverbund Berlin e.V., priority 2008, dated 2009).
Like-named read-outs stand apart in the source and are kept apart here. One block for each compound: values may come before it.

What was measured:
Rattenherzen = assay: Langendorff isolated heart: left ventricular pressure, contraction and relaxation rates; design: species or system Ratte; details: perfused rat hearts, 10 µM, n ≥ 8 hearts per condition
Description: Bestimmung der linksventrikulären Druckentwicklung, der maximalen Kontraktions- (CR) und Relaxationsraten (RR) von Rattenherzen (in %) in einer Langendorff-Herz-Apparatur.
zeigt den Einfluss von Isoproterenol, DMSO, den Substanzen 1016, 1020 und 1021 auf die relative Zellgröße der Kardiomyozyten bezogen auf die durchschnittliche Zellgröße von Kontrollzellen (%). Kardiomyozyten wurden für 48h entweder unbehandelt belassen oder mit 15 µM Isoproterenol als Kontrollen inkubiert. Da die Kardiomyozyten zusätzlich zu der Substanz mit höchstens 0,1% DMSO inkubiert wurden, wurden Kardiomyozyten nur mit 0,1% für 48h inkubiert. Des Weiteren wurde ein möglicher Effekt von DMSO auf die Isoproterenolinduzierte Hypertrophie untersucht und die Zellen demnach mit 0,1% DMSO für 20 min präinkubiert und anschließend mit 15 µM Isoproterenol für 48 h inkubiert. Außerdem wurden Kardiomyozyten mit den Substanzen 1016, 1020 und 1021 in den Konzentrationen 3, 10, 30, 50 oder 75 µM für 48 h ohne Isoproterenol inkubiert. Des Weiteren wurden Kardiomyozyten mit den Substanzen 1016, 1020 und 1021 in den Konzentrationen 3, 10, 30, 50 oder 75 µM präinkubiert. Dann wurde Isoproterenol (15 µM) zu den Endkonzentrationen von 3, 10, 30, 50 oder 75 µM zugegeben und die Kardiomyozyten damit für 48 h inkubiert. Nach der Inkubation mit den Substanzen wurde α-Aktinin immunfluoreszenzmikroskopisch dargestellt. […]

[1] = system: AKAP18δ und regulatorischen RIIα- und RIIβ-Untereinheiten; assay: Oligomerisation of AKAP18δ and RII subunits in neonatal cardiomyocytes (cAMP-agarose precipitation, Western blot); format: cell-based; details: neonatal cardiomyocytes incubated with the substances
Description: Neonatale Kardiomyozyten wurden mit den Substanzen in den angegebenen Konzentrationen inkubiert. A. Anschließend wurde eine cAMP-Agarose-Präzipitation und ein Western Blot (WB) zur Detektion von AKAP18δ durchgeführt. Als Negativkontrolle wurde die cAMP-Agarose mit cAMP inkubiert, das die Bindung von R-Untereinheiten an die Agarose verhindert. B. Detektion von RIIβ in Lysaten von neonatalen Kardiomyozyten. C. Detektion von AKAP18δ, RIIα und RIIβ nach Inkubation mit den Substanzen.

Phopholamban (PLB) = assay: Phospholamban phosphorylation in neonatal cardiomyocytes (Western blot); format: cell-based; details: 300 µM for 5 min; p-PLB relative to Calsequestrin
Description: Die Zellen wurden mit DMSO (control), dem β-Adrenozeptoragonisten Isoproterenol (ISO) oder dem AKAP-PKA-Interaktionshemmer FMP-API-1 bzw. dessen Derivaten (300 µM) für 5 min. inkubiert, anschließend lysiert und im Western Blot wurde phosphoryliertes Phospholamban (p-PLB) mittels eines spezifischen anti-Phospholambanantikörpers detektiert. Calsequestrin, ein Protein des sarkoplasmatischen Retikulums, dient als Ladungskontrolle. Für die Quantifizierung (densitometrische Auswertung) wurde die p-PLB-Menge auf die Menge von Calsequestrin bezogen. Angegeben sind relative densitometrische Einheiten (RDU; Mittelwerte ± SEM, drei unabhängige Experimente).

PKA [2] = biological target: PKA (Homo sapiens, UniProt P31323); assay: PKA activation in vitro (Peptag substrate peptide phosphorylation); format: biochemical; details: 1 mM, catalytic subunits with or without RIIβ subunits
Description: Die Substanz 18882 (FMP-API-1) aktiviert PKA in vitro. Das Experiment wurde wie in Abb. 24 dargestellt durchgeführt. Hier wurde zusätzlich mit AKAP18δ inkubiert. Katalytische Untereinheiten der PKA wurden in An- oder Abwesenheit von regulatorischen RIIβ-Untereinheiten mit der Substanz 18882 (FMP-API-1; 1 mM) inkubiert. Die Aktivierung der PKA wurde anhand der Phosphorylierung des fluoreszierenden Substratpeptids Peptag verfolgt und quantifiziert. Die semiquantitative Analyse der Peptag-Peptidphosphorylierung wurde densitometrisch vorgenommen (Mittelwerte ± SEM). Die Gegenwart des AKAP hat einen geringen zusätzlich Einfluß auf den Effekt der Substanz 18882.

[3] = system: Interaktionen von regulatorischen RII-Untereineinheiten der PKA (RIIα und β) mit AKAP150, dem AKAP Yotiao und AKAP18δ; assay: cAMP-agarose precipitation with Western blot detection of precipitated AKAPs; format: cell-based; details: neonatal cardiomyocytes; FMP-API-1 100 µM; precipitated AKAPs detected by Western blot
Description: Die Verbindungen 18882 (FMP-API-1), 1016, 1020 und 1021 (siehe Tabelle 1) hemmen die Interaktionen von regulatorischen RII-Untereineinheiten der PKA (RIIα und β) mit AKAP150, dem AKAP Yotiao und AKAP18δ. Es wurden cAMP-Agarose-Präzipitationen mit neonatalen Kardiomyozyten in Ab- oder Anwesenheit des AKAP-PKA-Interaktionshemmers FMP-API-1 (100 µM), einer Kontrollsubstanz (100 µM) und cAMP (50 mM) durchgeführt. cAMP-Agarose bindet regulatorische Untereinheiten der PKA und deren Bindungspartner, inklusive AKAP. Präzipitierte AKAP wurden mit spezifischen Antikörpern mittels Western Blot detektiert.

[4] = system: neonatalen Kardiomyozyten aus der Ratte; assay: cAMP level in neonatal cardiomyocytes, radioimmunoassay (RIA); format: cell-based; details: substances 50 µM in the presence of Isoproterenol 100 nM
Description: Die Substanzen 18882 (FMP-API-1), 1004, 1010, 1016, 1020, 1021 und 1023 steigern in Gegenwart des β-Adrenozeptoragonisten Isoproterenol den cAMP-Spiegel in neonatalen Kardiomyozyten aus der Ratte. Die Zellen wurden unbehandelt belassen, mit Isoproterenol allein (100 nM), mit Isoproterenol (100 nM) und den Substanzen (50 µM) oder mit Forskolin inkubiert. Der cAMP-Spiegel wurde durch Radioimmuno-Assay (RIA) bestimmt.

[5] = system: kultivierten adulten Kardiomyozyten; assay: Contractility of cultured adult cardiomyocytes (Fura-2, field stimulation); format: cell-based; details: 10µM; calcium fluxes and cell shortening parameters
Description: Die Substanzen 18882 (FMP-API-1) und 1016 steigern die Kontraktilität an kultivierten adulten Kardiomyozyten (positiv inotroper Effekt). Die Zellen wurden isoliert, mit Fura-2 beladen und einer Feldstimulation ausgesetzt. Bestimmt wurden die Calciumfluxe und Zellverkürzungsparameter (cell shortening parameters) unter basalen Bedingungen und in Gegenwart von DMSO, Isoproterenol , FMP-API-1 (10µM) oder 1016 (10µM). Dargestellt sind Mittelwerte ± SEM.

PKA [6] = assay: PKA activation in neonatal cardiomyocytes (Peptag phosphorylation); format: cell-based, Ratte; details: 300µM for 30 min, densitometry
Description: (§1) Die zeigt, dass die Substanzen 1016,1020,1021 und 1027 PKA in neonatalen Kardiomyozyten aus der Ratte aktivieren. Die Zellen wurden mit DMSO (Kontrolle), die Substanzen in 300µM Konzentrationen, oder dem Adenylylzyklaseaktivator Forskolin für 30 min inkubiert. Die Aktivierung der PKA wurde anhand der Phosphorylierung des fluoreszierenden Substratpeptids Peptag verfolgt und quantifiziert. Die semiquantitative Analyse der Peptag-Peptidephosphorylierung wurde densitometrisch vorgenommen. Angegeben sind relative densitometrische Einheiten (RDU; Mittelwerte ± SD).
as §1, with “zeigt,” for “Die zeigt,”, “Forskolin (FSK)” for “Forskolin”

[7] = biological target: Bindung von RIIα an Peptide, die aus der PKA-Bindedomäne von AKAP18δ abgeleitet sind (AKAP18δ-L314E) (Homo sapiens, UniProt P13861); assay: Biacore: inhibition of RIIα binding to immobilised peptide AKAP18δ-L314E; details: for inhibition at 100 µM: read-out: maximale Hemmung (RIIα-Bindung an das Peptid AKAP18δ-L314E); for Hemmung der Interaktion (RIIα-Bindung an das Peptid AKAP18δ-L314E): preincubation of RIIα for 2 h
Description: Für das Experiment wurden Oberflächen mit dem Peptid beschichtet, mit RIIα-Untereinheiten inkubiert und die Reaktion in Biacore-Messungen verfolgt.

[8] = system: neonatalen Kardiomyozyten aus der Ratte; assay: cAMP level in neonatal cardiomyocytes, ELISA-based assay; format: cell-based; details: substances 50 µM in the presence of Isoproterenol 100 nM
Description: Die Substanzen 1025, 1026, 1027 und 1028 steigern in Gegenwart des β-Adrenozeptoragonisten Isoproterenol den cAMP-Spiegel in neonatalen Kardiomyozyten aus der Ratte. Die Zellen wurden unbehandelt belassen, mit Isoproterenol allein (100 nM) oder mit Isoproterenol (100 nM) und den Substanzen (50 µM) inkubiert. Der cAMP-Spiegel wurde durch einen ELISA-basierten Assay bestimmt.

RIIα = RIIα (Homo sapiens, UniProt P13861); assay: Biacore: direct binding of substances to covalently immobilised RIIα; details: for Bindungen des Peptids Ht31 und der Substanz an RIIα: RIIα surface incubated with peptide Ht31 and additionally with the substance; for Bindung an RIIα: surfaces covalently coated with RIIα, incubated with the substances
Description: Biacore-Messungen zum Nachweis der Bindung der Substanz 1026 an RIIα. Es wurden Oberflächen durch kovalente Bindung mit RIIα beschichtet und mit der Substanz in den angegebenen Konzentrationen inkubiert.
Die Bindungen des Peptids Ht31 und der Substanz 1026 an RIIα sind additiv. Es wurden Oberflächen durch kovalente Bindung mit RIIα beschichtet und mit dem Peptid Ht31, das an die sog. Dimerisierungs- und docking-Domäne (DD-Domäne) von regulatorischen Untereinheiten der PKA bindet, inkubiert.
Es wurden Oberflächen durch kovalente Bindung mit RIIα beschichtet und mit den Substanzen inkubiert.

Sequence of Bindung von RIIα an Peptide, die aus der PKA-Bindedomäne von AKAP18δ abgeleitet sind (AKAP18δ-L314E) (P13861 whole entry, stated change not applied): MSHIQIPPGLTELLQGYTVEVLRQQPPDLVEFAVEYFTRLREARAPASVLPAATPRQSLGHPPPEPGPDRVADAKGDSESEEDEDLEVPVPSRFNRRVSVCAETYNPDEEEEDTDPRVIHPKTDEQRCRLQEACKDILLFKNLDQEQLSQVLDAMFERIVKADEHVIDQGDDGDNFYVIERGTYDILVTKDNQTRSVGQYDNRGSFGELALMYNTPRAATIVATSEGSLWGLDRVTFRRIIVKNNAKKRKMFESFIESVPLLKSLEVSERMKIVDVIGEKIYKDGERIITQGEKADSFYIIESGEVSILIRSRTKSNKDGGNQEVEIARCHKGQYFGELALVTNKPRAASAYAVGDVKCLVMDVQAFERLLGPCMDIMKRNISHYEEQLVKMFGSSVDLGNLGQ
Sequence of RIIα (P13861 whole entry): as the sequence (P13861 whole entry, stated change not applied) above
Sequence of PKA (Homo sapiens, UniProt P31323) (P31323 whole entry): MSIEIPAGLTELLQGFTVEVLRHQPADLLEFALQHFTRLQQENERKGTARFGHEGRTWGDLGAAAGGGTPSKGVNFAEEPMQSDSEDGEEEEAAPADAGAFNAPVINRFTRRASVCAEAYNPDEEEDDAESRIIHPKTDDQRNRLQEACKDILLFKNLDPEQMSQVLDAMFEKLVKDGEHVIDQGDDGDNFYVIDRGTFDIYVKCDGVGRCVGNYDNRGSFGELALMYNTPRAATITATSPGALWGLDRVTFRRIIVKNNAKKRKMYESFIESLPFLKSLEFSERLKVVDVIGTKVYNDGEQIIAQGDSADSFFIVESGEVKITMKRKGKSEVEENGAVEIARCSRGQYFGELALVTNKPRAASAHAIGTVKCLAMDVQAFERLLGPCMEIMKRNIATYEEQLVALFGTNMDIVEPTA

SMILES: Nc1cc(Cc2ccc(O)cc2)ccc1O [Verbindung 1016, 3-Amino-4,4'-dihydroxydiphenylmethan]
Aktivierung der PKA in neonatalen Kardiomyozyten (PKA [6]): aktivieren
Oligomerisierung (Oligomers) von AKAP18δ und regulatorischen RIIα- und RIIβ-Untereinheiten [1]: induzieren die Oligomerisierung
Phosphorylierung von Phopholamban (PLB) (Phopholamban (PLB)): induzieren eine Zunahme
inhibition at 100 µM ([7]; concentration 100 µM): ~60%
Hemmung der Interaktion (RIIα-Bindung an das Peptid AKAP18δ-L314E) [7]: ~50%
Hemmung der Interaktionen von regulatorischen RII-Untereineinheiten der PKA (RIIα und β) mit AKAP150, Yotiao und AKAP18δ [3]: hemmen
cAMP-Spiegel [4]: steigern
Kontraktilität (positiv inotroper Effekt) [5]: steigern

SMILES: O=C(c1ccc(O)c(O)c1)c1ccc(O)c(O)c1 [Verbindung 1028, Bis-(3,4-dihydroxy-phenyl)-methanon]
cAMP-Spiegel [8]: steigern
Bindungen des Peptids Ht31 und der Substanz an RIIα (RIIα): additiv
Bindung an RIIα (RIIα): konzentrationsabhängigen Bindung

SMILES: CC(c1ccc(O)cc1)c1ccc(O)c(N)c1 (stereo not shown) [Verbindung 1021, 3-Amino-1,1-bis-(4-hydroxyphenyl)-ethan]
Aktivierung der PKA in neonatalen Kardiomyozyten (PKA [6]): aktivieren
Oligomerisierung (Oligomers) von AKAP18δ und regulatorischen RIIα- und RIIβ-Untereinheiten [1]: induzieren die Oligomerisierung
Phosphorylierung von Phopholamban (PLB) (Phopholamban (PLB)): induzieren eine Zunahme
Hemmung der Interaktion (RIIα-Bindung an das Peptid AKAP18δ-L314E) [7]: ~40%
inhibition at 100 µM [7]: ~50%
Hemmung der Interaktionen von regulatorischen RII-Untereineinheiten der PKA (RIIα und β) mit AKAP150, Yotiao und AKAP18δ [3]: hemmen
cAMP-Spiegel [4]: steigern

SMILES: CC(c1ccc(O)c(N)c1)c1ccc(O)c(N)c1 [Verbindung 1020, 1,1-Bis-(3-Amino-4-hydroxyphenyl)-ethan]
Aktivierung der PKA in neonatalen Kardiomyozyten (PKA [6]): aktivieren
Oligomerisierung (Oligomers) von AKAP18δ und regulatorischen RIIα- und RIIβ-Untereinheiten [1]: induzieren die Oligomerisierung
Phosphorylierung von Phopholamban (PLB) (Phopholamban (PLB)): induzieren eine Zunahme
Hemmung der Interaktion (RIIα-Bindung an das Peptid AKAP18δ-L314E) [7]: ~50%
inhibition at 100 µM [7]: ~50%
Hemmung der Interaktionen von regulatorischen RII-Untereineinheiten der PKA (RIIα und β) mit AKAP150, Yotiao und AKAP18δ [3]: hemmen
cAMP-Spiegel [4]: steigern

Further lines, with some results ahead:

Aktivierung der PKA in vitro (PKA [2]): aktiviert
SMILES: Nc1cc(Cc2ccc(O)c(N)c2)ccc1O [Verbindung 18882, 3,3'-Diamino-4,4'-dihydroxydiphenylmethan, reference compound]
Zunahme der gemessenen Parameter (linksventrikuläre Druckentwicklung, maximale Kontraktions- (CR) und Relaxationsraten (RR)) (Rattenherzen): ~17%
Oligomerisierung (Oligomers) von AKAP18δ und regulatorischen RIIα- und RIIβ-Untereinheiten [1]: induzieren die Oligomerisierung
Phosphorylierung von Phopholamban (PLB) (Phopholamban (PLB)): induzieren eine Zunahme
Hemmung der Interaktionen von regulatorischen RII-Untereineinheiten der PKA (RIIα und β) mit AKAP150, Yotiao und AKAP18δ [3]: hemmen
cAMP-Spiegel [4]: steigern
Kontraktilität (positiv inotroper Effekt) [5]: steigern

Bindung an RIIα (RIIα): konzentrationsabhängigen Bindung
SMILES: COc1ccc(Cc2ccc(OC)c(N)c2)cc1N [Verbindung 1030]

Bindungen des Peptids Ht31 und der Substanz an RIIα (RIIα): additiv
Bindung an RIIα (RIIα): konzentrationsabhängigen Bindung
SMILES: Oc1ccc(Cc2ccccc2)cc1O [Verbindung 1027, 4-Benzyl-pyrocatechol]
Aktivierung der PKA in neonatalen Kardiomyozyten (PKA [6]): aktivieren
cAMP-Spiegel [8]: steigern
